# Measured values published in patent US20160199434A1, “COMPOSITIONS AND METHODS FOR MODULATING DNA METHYLATION” (OHIO STATE INNOVATION FOUNDATION, priority 2013, published 2016).
# Entries after “also recorded” stand apart in the source; their conditions may differ.
# Columns and labels:
# DNMT-3a = DNMT-3a mRNA expression by RT-PCR in MDA-MB-231 tumor cells; type: cell-based, human; conditions: 25 μM, 24 hours, compared to DMSO (FIG. 1B)
# Method: FIGS. 1A-1E show DNA methyltransferase mRNA expression in vitro and in vivo. […] PyMT tumor cells were left untreated, were treated with DMSO, or were treated with AKB-6899 (10, 25, or 50 μM) for 24 hours. The cells were subjected to Trizol extraction to recover total RNA. cDNA was synthesized for RT-PCR of DNMT-1 and DNMT-3a mRNA expression. […] Human MDA-MB-231 tumor cells were left untreated, were treated with DMSO, or were treated with AKB-6899 (25 μM) for 24 hours. Total RNA was isolated for RT-PCR. FIG. 1C (DNMT-1), FIG. 1D (DNMT-3a), and FIG. 1E (DNMT-3b) compare the effect of AKB-6899 with the effect of 5-aza-2′deoxycytidine (5-AZA) as assessed by RT-PCR in human cervical tumors implanted in mice that were either untreated (UTX), treated with DMSO, treated with 5-AZA, or treated with AKB-6899 (17.5 mg/kg).
# To determine whether the decrease in DNMT expression and the increase in DSP expression were relevant in human cancer, the level of desmoplakin expression in MDA-MB-231 human triple negative breast cancer cells was determined. […] (FIG. 3B).
# [1] = tested on: desmoplakin (DSP) gene promoter; assay: Methylation of DSP promoter in C8161.9 melanoma cells; type: cell-based, human
# Method: (§1) FIGS. 3A-3E show the effect of AKB-6899 (25 μM) on methylation of the desmoplakin (DSP) gene promoter in PyMT breast cancer cells (3A), human MDA-MB-231 triple negative breast cancer cells (3B), human C8161.9 melanoma cells (3C), and human MCF-7 breast cancer cells (3D). In FIG. 3A, the DSP promoter was 100% unmethylated (AKB-6899) vs. 99.99% methylated (vehicle). In FIG. 3B, the DSP promoter was 99.62% unmethylated (AKB-6899) v. 99.89% (vehicle). In FIG. 3C, the DSP promoter was 99.90% unmethylated (AKB-6899) v. 42.04% (vehicle). In FIG. 3D, the DSP promoter was 92.48% unmethylated (AKB-6899) v. 98.48% (vehicle). In FIG. 3E, when compared to the vehicle (DMSO), treatment of PyMT cells with AKB-6899 increased DSP expression.
# The gene expression signatures from the tumors of PyMT breast tumor-bearing mice that were treated with either vehicle or AKB-6899 were evaluated. […] Methylation-specific PCR on the desmoplakin promoter was performed. The level of hypomethylation was near complete.
# desmoplakin mRNA = assay: Desmoplakin mRNA expression in cultured PyMT cells; type: cell-based, mouse
# Method: as §1
# FIGS. 4A-4B show desmoplakin mRNA expression in vitro and in vivo.
# DNMT-1 = DNMT-1 transcription in H1703 lung cancer cells; type: cell-based, human; conditions: H1703 cells in vitro, dose-dependent (FIG. 10A)
# From the text: (§2) In FIG. 10A, AKB-6899 inhibited DNMT-1, DNMT-3a, and DNMT-3b transcription in a dose-dependent manner in human squamous cell carcinoma lung cancer cells (H1703), in vitro. The DMSO-treated DNMT mRNAs are over 1.0, meaning the level of expression is higher than the housekeeping control gene, CAP1. In FIG. 10B, AKB-6899 inhibited DNMT-3a and DNMT-3b transcription in human adenocarcinoma lung cancer cells (A549). The DMSO-treated DNMT mRNAs are under 1.0, meaning the level of expression is lower than the housekeeping control gene, CAP1.
# DNMT-3b [2] = assay: DNMT-3b transcription in H1703 lung cancer cells; type: cell-based, human; conditions: H1703 cells in vitro, dose-dependent (FIG. 10A)
# From the text: as §2
# DNMT-3b [3] = assay: DNMT-3b transcription in A549 lung cancer cells; type: cell-based, human; conditions: A549 cells (FIG. 10B)
# From the text: as §2
# [4] = tested on: 23 different gene promoters; assay: Percent methylation of 23 gene promoters in A549 adenocarcinoma; type: cell-based, human; conditions: A549, 10 μM and 50 μM, compared to DMSO
# Method: FIGS. 11A-11D show the percent methylation for 23 different gene promoters in two types of human lung cancer cells—FIGS. 11A and 11B are directed at H1703 squamous cell carcinoma and FIG. 11C and FIG. 11D are directed at A549 adenocarcinoma. DMSO was used as a vehicle and was used as a control. […] The Dec/PBA condition represents a combination of 5 μM Decitabine (5-aza-2′deoxycytidine (5-AZA), which is a demethylating agent) and 2 mM […] (PBA, HDAC inhibitor). In all promoters tested, and in both types of lung cancer, AKB-6899 demethylated the gene promoters such that the level of % DNA methylation following AKB-6899 treatment was below the level of % DNA methylation of the DMSO-treated control cells (DMSO).
# [5] = tested on: H1703 squamous cell carcinoma; assay: XTT cell survival assay, H1703 lung cancer cells; type: cell-based, human; conditions: H1703, increasing doses (FIG. 13B)
# From the text: FIGS. 13A-13B show XTT cell survival assays for normal lung epithelial cells (BEAS-2B) and lung cancer cells (H1703 squamous cell carcinoma and A549 adenocarcinoma) in response to increasing doses of AKB-6899.
# RASSF1 promoter = assay: CpG methylation of RASSF1 promoter in lungs of normal mice; type: in vivo, mouse; conditions: i.p., three weeks (FIG. 14B)
# Method: FIGS. 14A-14C show the effects of systemic administration of AKB-6899. Mice were treated three times per week for three weeks with either i.p. AKB-6899 or i.p. DMSO. The lungs were removed and assayed to determine DNMT mRNA expression, percent CpG methylation, and fold change in mRNA. […] The data was standardized to 1.0 by the DMSO levels of the respective gene expression, (n=4 lungs per condition).
# PyMT tumor cells = assay: Trypan Blue cell death check in PyMT tumor cells; type: cell-based; conditions: compared to control cells
# Method: Because DSP is regulated by ER/PR expression, and because late-stage PyMT tumors lose ER/PR-positivity and heavily metastasize to the lymph nodes and lungs (Lin et al., 2003), the effects of AKB-6899 on more global events that regulate gene expression was evaluated. PyMT tumor cells in culture were treated with DMSO or AKB-6899. Methylation-specific PCR for CpG islands in the desmoplakin promoter were performed. […] Trypan Blue confirmed no cell death in AKB-6899 treated cells when compared to control cells. The experiment was repeated and RNA was isolated from the cells. RT-PCR was performed and the regulation of DNA methyltransferases (DNMTs) was evaluated. […] (FIG. 1A). The decrease in mRNA levels of DNMT-1 and DNMT-3a increased the mRNA level of DSP (FIG. 4A) and increased desmoplakin protein expression (FIG. 5A).
smiles,measurement,setting,value
"O=C(O)CNC(=O)c1ncc(-c2cccc(F)c2)cc1O [AKB-6899, {[5-(3-Fluorophenyl)-3-hydroxypyridine-2-carbonyl]amino}acetic acid]",DNMT-3a mRNA expression,DNMT-3a,significantly decreased; also recorded: downregulated
same,DSP promoter unmethylated,"[1]; C8161.9 melanoma cells, 25 μM (FIG. 3C)",99.90%
same,level of hypomethylation of desmoplakin promoter (in words),[1]; C8161.9 melanoma tumor cells,near complete
same,DSP expression,"desmoplakin mRNA; PyMT cells, compared to vehicle (DMSO) (FIG. 3E)",increased
same,desmoplakin mRNA expression,"desmoplakin mRNA; cultured PyMT cells, 10 μM, compared to DMSO (FIG. 4A)",significantly increases
same,DNMT-1 transcription,DNMT-1,inhibited
same,DNMT-3b transcription,DNMT-3b [2],inhibited
same,DNMT-3b transcription,DNMT-3b [3],inhibited
same,percent DNA methylation of 23 gene promoters,[4],decreased the percent of DNA methylation in a dose response fashion
same,cell survival / toxicity,[5],pronounced toxicity
same,methylation of RASSF1 promoter in lungs,RASSF1 promoter,demethylated
same,cell death by Trypan Blue,PyMT tumor cells,no cell death
